We go through twelve molecules from US20260070945A1, “MACROCYCLIC IMMUNOMODULATORS” (Bristol-Myers Squibb Company, priority 2022, published 2026).

Where a SMILES comes first, the peptide text is derived from it. Bridges are numbered along the chain shown (N, C = ends). [ ]: non-standard residue; d: D form. The star is where a group is joined. ξ: configuration not given here. Phe(3-CF3) = N[C@@H](Cc1cccc(C(F)(F)F)c1)C(=O)O; Phe(4-CF3) = N[C@@H](Cc1ccc(C(F)(F)F)cc1)C(=O)O; Phe(4-COOH) = N[C@@H](Cc1ccc(C(=O)O)cc1)C(=O)O; Bip = N[C@@H](Cc1ccc(-c2ccccc2)cc1)C(=O)O; Phe(3-Me) = Cc1cccc(C[C@H](N)C(=O)O)c1; Abu(3S-NH2) = C[C@H](N)[C@H](N)C(=O)O; NH(CH2)12COOH = O=C(O)CCCCCCCCCCCCN*; Val(3-OH) = CC(C)(O)[C@H](N)C(=O)O; hArg = N=C(N)NCCCC[C@H](N)C(=O)O; 4Pal = N[C@@H](Cc1ccncc1)C(=O)O; Cha = N[C@@H](CC1CCCCC1)C(=O)O; Cit = NC(=O)NCCC[C@H](N)C(=O)O; Thr(3ξ) = CC(O)[C@H](N)C(=O)O; Carboxymethyl = O=C(O)C*; NMeA = CN[C@@H](C)C(=O)O; Aun = NCCCCCCCCCCC(=O)O; Dab = NCC[C@H](N)C(=O)O; Dap = NC[C@H](N)C(=O)O; AEEA = NCCOCCOCC(=O)O; Sar = CNCC(=O)O

T1 sequence (Q15116 25-288): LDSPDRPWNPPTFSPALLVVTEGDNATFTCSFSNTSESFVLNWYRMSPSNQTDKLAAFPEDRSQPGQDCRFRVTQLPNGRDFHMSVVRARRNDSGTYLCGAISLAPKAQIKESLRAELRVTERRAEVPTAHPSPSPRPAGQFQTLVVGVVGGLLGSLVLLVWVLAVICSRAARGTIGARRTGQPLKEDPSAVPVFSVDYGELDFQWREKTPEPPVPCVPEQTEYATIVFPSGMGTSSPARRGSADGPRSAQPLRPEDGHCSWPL

The first assay has as its target T1, PD-1/PD-L1 interaction (PE-labeled human PD-L1-Ig binding to Jurkat cell line over-expressing human PD-1) (Homo sapiens, UniProt Q15116).
T1 construct: expressed in transfected cells; host or cells: Jurkat
The assay can be described thus: Jurkat-PD-1 Cell Binding High-Content Screening Assay (CBA). The settings on record: Jurkat-hPD-1 cells, PE-labeled PD-L1-Ig 20 nM final; read-out: Jurkat HPD1 PDL1 IC50. The method in brief:
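Read-out: high-content imaging of cell-bound PE fluorescence, with Hoechst 33342 nuclear counterstain after paraformaldehyde fixation. Before labeled ligand (20 nM final, 1 h) was added, compound sat on the cells for 2 h at 37 °C in DMEM/10% FCS.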
Broadly, the IC50 is the concentration that inhibits the measured activity by half. On to `CC(C)C[C@H]1NC(=O)[C@H](C)N(C)C(=O)[C@H](Cc2ccc(OCC(=O)O)cc2)NC(=O)[C@H](Cc2ccc(-c3ccccc3)cc2)NC(=O)[C@H](Cc2ccc(OCC(=O)O)cc2)NC(=O)[C@H](Cc2c[nH]c3ccccc23)NC(=O)[C@H](CC(=O)O)NC(=O)[C@H](Cc2ccc(OCC(=O)O)cc2)NC(=O)[C@H]([C@@H](C)O)NC(=O)CSC[C@@H](C(=O)N[C@@H](CCN)C(=O)NCCOCCOCC(=O)NCCCCCCCCCCC(=O)O)NC(=O)[C@H](CO)NC(=O)[C@H](C(C)C)NC(=O)[C@H](CC2CCCCC2)NC(=O)[C@H](CCC(=O)O)NC1=O` [Example 1399] ({CH2CO}-TY(Carboxymethyl)DWY(Carboxymethyl)[Bip]Y(Carboxymethyl)[NMeA][dL]E[Cha]VSC[Dab][AEEA][Aun]-OH; thioether N-14), for which the IC50 turned out to be 68.8 nM.
With `CC(C)C[C@@H]1NC(=O)[C@H](Cc2c[nH]c3ccccc23)NC(=O)[C@H](CC(=O)O)NC(=O)[C@H](Cc2ccc(OCC(=O)O)cc2)NC(=O)[C@H](CCCCNC(=N)N)NC(=O)CSC[C@@H](C(=O)NCC(=O)NCCOCCOCC(=O)N[C@@H](CN)C(=O)NCCCCCCCCCCC(=O)O)NC(=O)[C@H](CCCNC(N)=O)NC(=O)[C@H](C(C)C)NC(=O)[C@H](CC2CCCCC2)NC(=O)[C@H](CCN)NC(=O)[C@@H](CC(C)C)NC(=O)[C@H](C)N(C)C(=O)[C@H](C(C)C)NC(=O)[C@H](Cc2ccc(-c3ccccc3)cc2)NC1=O` [Example 2178] ({CH2CO}-[hArg]Y(Carboxymethyl)DWL[Bip]V[NMeA][dL][Dab][Cha]V[Cit]CG[AEEA][Dap][Aun]-OH; thioether N-14), the IC50 worked out at 8.5 nM.
On to `CC(C)C[C@H]1NC(=O)[C@H](C)N(C)C(=O)[C@H](CCC(N)=O)NC(=O)[C@H](Cc2ccc(-c3ccccc3)cc2)NC(=O)[C@H](Cc2ccc(C(=O)O)cc2)NC(=O)[C@H](Cc2cccc(C(F)(F)F)c2)NC(=O)[C@H](CC(=O)O)NC(=O)[C@H](Cc2ccc(OCC(=O)O)cc2)NC(=O)[C@H]([C@H](C)N)NC(=O)CSC[C@@H](C(=O)N[C@@H](CCN)C(=O)NCCCCCCCCCCCCC(=O)O)NC(=O)[C@H](Cc2c[nH]cn2)NC(=O)[C@H](C(C)(C)O)NC(=O)[C@H](CC2CCCCC2)NC(=O)[C@H](CCN)NC1=O` [Example 1192] ({CH2CO}-[Abu(3S-NH2)]Y(Carboxymethyl)D[Phe(3-CF3)][Phe(4-COOH)][Bip]Q[NMeA][dL][Dab][Cha][Val(3-OH)]HC[Dab]-{NH(CH2)12COOH}; thioether N-14), for which the IC50 is 17.5 nM.
Still for that read-out and setting: as for `COC[C@@H]1NC(=O)CSC[C@@H](C(=O)N[C@@H](CCN)C(=O)NCCCCCCCCCCCCC(=O)O)NC(=O)[C@H](CO)NC(=O)[C@H](C(C)(C)O)NC(=O)[C@H](CC2CCCCC2)NC(=O)[C@H](CCN)NC(=O)[C@@H](CC(C)C)NC(=O)[C@H](C)N(C)C(=O)[C@H](CCCNC(N)=O)NC(=O)[C@H](Cc2ccc(-c3ccccc3)cc2)NC(=O)[C@H](Cc2ccc(C(=O)O)cc2)NC(=O)[C@H](Cc2cccc(C(F)(F)F)c2)NC(=O)[C@H](CC(=O)O)NC(=O)[C@H](Cc2ccc(OCC(=O)O)cc2)NC1=O` [Example 1140] ({CH2CO}-S(Me)Y(Carboxymethyl)D[Phe(3-CF3)][Phe(4-COOH)][Bip][Cit][NMeA][dL][Dab][Cha][Val(3-OH)]SC[Dab]-{NH(CH2)12COOH}; thioether N-14), the figure is 25.4 nM; as for `Cc1cccc(C[C@@H]2NC(=O)[C@H](CC(=O)O)NC(=O)[C@H](Cc3ccc(C(=O)O)cc3)NC(=O)[C@H](Cc3ccc(OCC(=O)O)cc3)NC(=O)CSC[C@@H](C(=O)N[C@@H](CCN)C(=O)NCCCCCCCCCCC(=O)O)NC(=O)[C@H](C(C)O)NC(=O)[C@H](C(C)C)NC(=O)[C@H](CC3CCCCC3)NC(=O)[C@H](CCN)NC(=O)[C@@H](CC(C)C)NC(=O)[C@H](C)N(C)C(=O)[C@H](Cc3ccc(C(=O)O)cc3)NC(=O)[C@H](Cc3ccc(-c4ccccc4)cc3)NC(=O)[C@H](CC(C)C)NC2=O)c1` (stereo partly drawn) [Example 2335] ({CH2CO}-Y(Carboxymethyl)[Phe(4-COOH)]D[Phe(3-Me)]L[Bip][Phe(4-COOH)][NMeA][dL][Dab][Cha]V[Thr(3ξ)]C[Dab][Aun]-OH; thioether N-14), 47.4 nM; as for `Cc1cccc(C[C@@H]2NC(=O)[C@H](CC(=O)O)NC(=O)[C@H](Cc3ccncc3)NC(=O)[C@H](Cc3ccc(OCC(=O)O)cc3)NC(=O)CSC[C@@H](C(=O)N[C@@H](CCN)C(=O)NCCOCCOCC(=O)NCCCCCCCCCCC(=O)O)NC(=O)[C@H]([C@@H](C)O)NC(=O)[C@H](C(C)C)NC(=O)[C@H](CC3CCCCC3)NC(=O)[C@H](CCN)NC(=O)[C@@H](CC(C)C)NC(=O)[C@H](C)N(C)C(=O)[C@H](Cc3ccc(OCC(=O)O)cc3)NC(=O)[C@H](Cc3ccc(-c4ccccc4)cc3)NC(=O)[C@H](Cc3ccc(OCC(=O)O)cc3)NC2=O)c1` [Example 1360] ({CH2CO}-Y(Carboxymethyl)[4Pal]D[Phe(3-Me)]Y(Carboxymethyl)[Bip]Y(Carboxymethyl)[NMeA][dL][Dab][Cha]VTC[Dab][AEEA][Aun]-OH; thioether N-14), 8.6 nM.
The same measure, in the same setting: the value for `Cc1cccc(C[C@@H]2NC(=O)[C@H](CC(=O)O)NC(=O)[C@H](Cc3ccc(C(=O)O)cc3)NC(=O)[C@H](Cc3ccc(OCC(=O)O)cc3)NC(=O)CSC[C@@H](C(=O)NCCCCCCCCCCC(=O)O)NC(=O)[C@H](CCCNC(N)=O)NC(=O)[C@H](C(C)C)NC(=O)[C@H](CC3CCCCC3)NC(=O)[C@H](CCN)NC(=O)[C@@H](CC(C)C)NC(=O)[C@H](C)N(C)C(=O)[C@H](CC(C)C)NC(=O)[C@H](Cc3ccc(-c4ccccc4)cc3)NC(=O)[C@H](CC(C)C)NC2=O)c1` [Example 2245] ({CH2CO}-Y(Carboxymethyl)[Phe(4-COOH)]D[Phe(3-Me)]L[Bip]L[NMeA][dL][Dab][Cha]V[Cit]C[Aun]-OH; thioether N-14) was 25 nM; that for `CC(C)C[C@@H]1NC(=O)[C@H](Cc2c[nH]c3ccccc23)NC(=O)[C@H](CC(=O)O)NC(=O)[C@H](Cc2ccc(C(=O)O)cc2)NC(=O)[C@H](Cc2ccc(OCC(=O)O)cc2)NC(=O)CSC[C@@H](C(=O)NCCOCCOCC(=O)NCCCCCCCCCCC(=O)O)NC(=O)[C@H](CN)NC(=O)[C@H](C(C)C)NC(=O)[C@H](CC2CCCCC2)NC(=O)[C@H](CCN)NC(=O)[C@@H](CC(C)C)NC(=O)[C@H](C)N(C)C(=O)[C@H](C(C)C)NC(=O)[C@H](Cc2ccc(-c3ccccc3)cc2)NC1=O` [Example 1093] ({CH2CO}-Y(Carboxymethyl)[Phe(4-COOH)]DWL[Bip]V[NMeA][dL][Dab][Cha]V[Dap]C[AEEA][Aun]-OH; thioether N-14) was 14.6 nM.
Still for that read-out and setting: as for `Cc1cccc(C[C@@H]2NC(=O)[C@H](CC(=O)O)NC(=O)[C@H](Cc3ccc(OCC(=O)O)cc3)NC(=O)[C@H](C(C)O)NC(=O)CSC[C@@H](C(=O)N[C@@H](CCN)C(=O)NCCOCCOCC(=O)NCCCCCCCCCCC(=O)O)NC(=O)[C@H](Cc3ccc(OCC(=O)O)cc3)NC(=O)[C@H](C(C)C)NC(=O)[C@H](CC3CCCCC3)NC(=O)[C@H](CCN)NC(=O)[C@@H](CC(C)C)NC(=O)[C@H](C)N(C)C(=O)[C@H](Cc3ccc(OCC(=O)O)cc3)NC(=O)[C@H](Cc3ccc(-c4ccccc4)cc3)NC(=O)[C@H](Cc3ccc(C(=O)O)cc3)NC2=O)c1` (stereo partly drawn) [Example 2478] ({CH2CO}-[Thr(3ξ)]Y(Carboxymethyl)D[Phe(3-Me)][Phe(4-COOH)][Bip]Y(Carboxymethyl)[NMeA][dL][Dab][Cha]VY(Carboxymethyl)C[Dab][AEEA][Aun]-OH; thioether N-14), the figure is 25.2 nM.
Regarding `CC(=O)NCCCC[C@@H]1NC(=O)[C@H](C(C)C)NC(=O)[C@H](CC2CCCCC2)NC(=O)[C@H](CCN)NC(=O)[C@@H](CC(C)C)NC(=O)[C@H](C)N(C)C(=O)[C@H](Cc2ccc(O)cc2)NC(=O)[C@H](Cc2ccc(-c3ccccc3)cc2)NC(=O)[C@H](C(C)C)NC(=O)[C@H](Cc2cccc(C)c2)NC(=O)[C@H](CC(=O)O)NC(=O)[C@H](Cc2ccc(OCC(=O)O)cc2)NC(=O)[C@H](CC(N)=O)NC(=O)CSC[C@@H](C(=O)N(C)CC(=O)NCCCCCCCCCCC(=O)O)NC1=O` [Example 2271] ({CH2CO}-NY(Carboxymethyl)D[Phe(3-Me)]V[Bip]Y[NMeA][dL][Dab][Cha]VK(Ac)C[Sar][Aun]-OH; thioether N-14), the IC50 was found to be 260 nM.

The same assay, now with this note: PE-labeled PD-L1-Ig 20 nM final, Jurkat-hPD-1 cells; read-out: Jurkat HPD1 PDL1 IC50.
On to `Cc1cccc(C[C@@H]2NC(=O)[C@H](CC(=O)O)NC(=O)[C@H](Cc3ccc(C(F)(F)F)cc3)NC(=O)[C@H](C(C)O)NC(=O)CSC[C@@H](C(=O)N[C@@H](CCN)C(=O)NCCCCCCCCCCC(=O)O)NC(=O)[C@H](C(C)O)NC(=O)[C@H](C(C)C)NC(=O)[C@H](CC3CCCCC3)NC(=O)[C@H](CCN)NC(=O)[C@@H](CC(C)C)NC(=O)[C@H](C)N(C)C(=O)[C@H](Cc3ccc(C(=O)O)cc3)NC(=O)[C@H](Cc3ccc(-c4ccccc4)cc3)NC(=O)[C@H](Cc3ccc(C(=O)O)cc3)NC2=O)c1` (stereo partly drawn) [Example 2571] ({CH2CO}-[Thr(3ξ)][Phe(4-CF3)]D[Phe(3-Me)][Phe(4-COOH)][Bip][Phe(4-COOH)][NMeA][dL][Dab][Cha]V[Thr(3ξ)]C[Dab][Aun]-OH; thioether N-14), for which the concentration for half-maximal inhibition (IC50) was 108 nM.
Regarding `Cc1cccc(C[C@@H]2NC(=O)[C@H](CC(=O)O)NC(=O)[C@H](Cc3ccc(OCC(=O)O)cc3)NC(=O)[C@H](C(C)O)NC(=O)CSC[C@@H](C(=O)N[C@@H](CCN)C(=O)NCCOCCOCC(=O)NCCOCCOCC(=O)NCCCCCCCCCCC(=O)O)NC(=O)[C@H](CCC(=O)O)NC(=O)[C@H](C(C)(C)O)NC(=O)[C@H](CC3CCCCC3)NC(=O)[C@H](CCN)NC(=O)[C@@H](CC(C)C)NC(=O)[C@H](C)N(C)C(=O)[C@H](Cc3ccc(C(=O)O)cc3)NC(=O)[C@H](Cc3ccc(-c4ccccc4)cc3)NC(=O)[C@H](Cc3ccc(C(=O)O)cc3)NC2=O)c1` (stereo partly drawn) [Example 2537] ({CH2CO}-[Thr(3ξ)]Y(Carboxymethyl)D[Phe(3-Me)][Phe(4-COOH)][Bip][Phe(4-COOH)][NMeA][dL][Dab][Cha][Val(3-OH)]EC[Dab][AEEA][AEEA][Aun]-OH; thioether N-14), the IC50 was found to be 17.1 nM.
